Reference: patent US9328138B2 (priority 2011, dated 2016)
Counter-ions that a name gives are not always drawn.

Assays:
[1] = target: T1, HCV genotype 1b (BK) NS3 modified enzyme with a R155K mutation (Hepatitis C virus genotype 1b, UniProt P26663, R1181K); test: HCV NS3 protease time-resolved fluorescence (TRF) assay, genotype 1b R155K; assay type: biochemical; settings: Ki 1b R155K
T1 construct: HCV genotype 1b (BK) NS3 modified enzyme
Experimental: (§1) The HCV NS3 protease inhibitory activity of the present compounds may be tested using assays known in the art. One such assay is HCV NS3 protease time-resolved fluorescence (TRF) assay as described below and in International Patent Application Publication No. WO2006/102087. Other examples of such assays are described in e.g., International Patent Application Publication No. WO2005/046712. The assay is performed in a final volume of 100 μl in assay buffer containing 50 mM HEPES, pH 7.5, 150 mM NaCl, 15% glycerol, 0.15% Triton X-100, 10 mM DTT, and 0.1% PEG 8000. NS3 protease is pre-incubated with various concentrations of inhibitors in DMSO for 30 minutes. The reaction is initiated by adding the TRF peptide substrate (final concentration 100 nM). NS3 mediated hydrolysis of the substrate is quenched after 1 hour at room temperature with 100 μl of 500 mM MES, pH 5.5. Product fluorescence is detected using either a VICTOR V2 or FUSION fluorophotometer (Perkin Elmer Life and Analytical Sciences) with excitation at 340 nm and emission at 615 nm with a 400 μs delay. Testing concentrations of different enzyme forms are selected to result in a signal to background ratio (S/B) of 10-30. IC50 values are derived using a standard four-parameter fit to the data. K; values are derived from IC50 values using the following formula, IC50=Ki(1+[S]/Km), Eqn (1), where [S] is the concentration of substrate peptide in the reaction and KM is the Michaelis constant. See Gallinari et al., 1999, Biochem. 38:5620-32; Gallinari et al., 1998, J. Virol. 72:6758-69; Taliani et al., 1996, Anal. Biochem. 240:60-67.
(§2) The HCV NS3 protease inhibitory activity was measured using the protease time-resolved fluorescence (TRF) assay as described below and in International Patent Application Publication No. WO 2006/102087. The assay was performed with HCV genotype 1b (BK) NS3 modified enzyme with a R155K mutation and genotype 3a (3A-1).
(§3) The assay was performed in a final volume of 50 μl in assay buffer containing 50 mM HEPES, pH 7.5, 150 mM NaCl, 15% glycerol, 0.15% TRITON X-100, 10 mM DTT, and 0.1% PEG 8000. NS3 and NS4A protease is pre-incubated with various concentrations of inhibitors in DMSO for 10 minutes. The reaction was initiated by adding the TRF peptide substrate (final concentration 25 nM) and NS3 mediated hydrolysis of the substrate proceeds for 6 hours at room temperature. Product fluorescence is detected using an Envision plate reader (Perkin Elmer) with excitation at 340 nm and emission at 615 nm with a 400 μs delay. Testing concentrations of the enzymes were selected to result in a signal to background ratio (S/B) of 5-20. IC50 values are derived using a standard four-parameter fit to the data.
(§4) NS3 and NS4A protease is pre-incubated with various concentrations of inhibitors in DMSO for 30 minutes. The reaction is initiated by adding the TRF peptide substrate (final concentration 100 nM). NS3 mediated hydrolysis of the substrate is quenched after 1 hour at room temperature with 100 μl of 500 mM MES, pH 5.5. Product fluorescence is detected using either a VICTOR V2 or FUSION fluorophotometer (Perkin Elmer Life and Analytical Sciences) with excitation at 340 nm and emission at 615 nm with a 400 μs delay. Testing concentrations of the enzymes are selected to result in a signal to background ratio (S/B) of 8-30. IC50 values are derived using a standard four-parameter fit to the data. Ki values are derived from IC50 values using the following formula, IC50=Ki(1+[S][…]), Eqn (1), where [S] is the concentration of substrate peptide in the reaction and KM is the Michaelis constant. See Gallinari et al., 1999, Biochem. 38:5620-32; Gallinari et al., 1998, J. Virol. 72:6758-69; and Taliani et al., 1996, Anal. Biochem. 240:60-67. ND means not determined.

[2] = target: HCV NS3 protease genotype 3a (3A-1) (Hepatitis C virus genotype 3a, UniProt Q81258); test: HCV NS3 protease time-resolved fluorescence (TRF) assay, genotype 3a; assay type: biochemical; settings: Ki 3a
Experimental: as §1, §2, §3, §4

[3] = genotype 1b (BK) NS3 R155K, single value
[4] = first of two values printed in the cell (not explained)
[5] = second of two values printed in the cell (not explained)

Structure (SMILES): C=C[C@@H]1C[C@]1(NC(=O)[C@@H]1C[C@@H]2CN1C(=O)[C@H](C(C)(C)C)NC(=O)O[C@@H]1CCC[C@H]1CC/C=C/Cc1c(nc3ccccc3c1OCCCOC)O2)C(=O)NS(=O)(=O)C1(C)CC1 [Example 90, (3aR,7S,10S,12R,21E,24aS)-7-tert-butyl-N-[(1R,2S)-2-ethenyl-1-{[(1-methylcyclopropyl)sulfonyl]carbamoyl}cyclopropyl]-19-(3-methoxypropoxy)-5,8-dioxo-1,2,3,3a,5,6,7,8,11,12,20,23,24,24a-tetradecahydro-10H-9,12-methanocyclopenta[18,19][1,10,3,6] dioxadiazacyclononadecino [11,12-b]quinoline-10-carboxamide]
- Ki [1, 3]: 0.15 nM
- Ki [2]: 1.6 nM

Structure (SMILES): C=C[C@@H]1C[C@]1(NC(=O)[C@@H]1C[C@@H]2CN1C(=O)[C@H](C1CCCCC1)NC(=O)O[C@@H]1C[C@H]1CCCCCc1c(nc3ccccc3c1OC1CCN(CCF)CC1)O2)C(=O)NS(=O)(=O)C1(C)CC1 [Example 272, 4-{[(1aR,5S,8S,10R,22aR)-5-cyclohexyl-8-{[(1R,2S)-2-ethenyl-1-{[(1-methylcyclopropyl)sulfonyl]carbamoyl}cyclopropyl]carbamoyl}-3,6-dioxo-1,1a,3,4,5,6,9,10,18,19,20,21,22,22a-tetradecahydro-8H-7,10-methanocyclopropa[18,19][1,10,3,6]dioxadiazacyclononadecino[11,12-b]quinolin-17-yl]oxy}-1-(2-fluoroethyl)piperidinium formate]
- Ki [1, 4]: 0.015 nM
- Ki [1, 5]: 0.128 nM
- Ki [2]: 2.12 nM

Structure (SMILES): C=C[C@@H]1C[C@]1(NC(=O)[C@@H]1C[C@@H]2CN1C(=O)[C@H](C(C)(C)C)NC(=O)O[C@@H]1C[C@H]1CCCCCc1c(nc3ccccc3c1OC1C3COCC1CN(CC)C3)O2)C(=O)NS(=O)(=O)C1(C)CC1 (stereo partly drawn) [Example 260, (1aR,5S,8S,10R,22aR)-5-tert-butyl-N-[(1R,2S)-2-ethenyl-1-{[(1-methylcyclopropyl)sulfonyl]carbamoyl}cyclopropyl]-17-[(7-ethyl-3-oxa-7-azabicyclo[3.3.1]non-9-yl)oxy]-3,6-dioxo-1,1a,3,4,5,6,9,10,18,19,20,21,22,22a-tetradecahydro-8H-7,10-methanocyclopropa[18,19][1,10,3,6]dioxadiazacyclononadecino[11,12-b]quinoline-8-carboxamide]
- Ki [1, 4]: 0.019 nM
- Ki [1, 5]: 0.093 nM
- Ki [2]: 2.4 nM

Structure (SMILES): C=C[C@@H]1C[C@]1(NC(=O)[C@@H]1C[C@@H]2CN1C(=O)[C@H](C(C)(C)C)NC(=O)O[C@@H]1CCC[C@H]1CC/C=C/Cc1c(nc3ccccc3c1OCCN1CCCCC1)O2)C(=O)NS(=O)(=O)C1CC1 [Example 75, (3aR,7S,10S,12R,21E,24aS)-7-tert-butyl-N-{(1R,2S)-1-[(cyclopropylsulfonyl)carbamoyl]-2-ethenylcyclopropyl}-5,8-dioxo-19-[2-(piperidin-1-yl)ethoxy]-1,2,3,3a,5,6,7,8,11,12,20,23,24,24a-tetradecahydro-10H-9,12-methanocyclopenta[18,19][1,10,3,6]dioxadiazacyclononadecino[11,12-b]quinoline-10-carboxamide]
- Ki [1, 3]: 0.28 nM
- Ki [2]: 2.3 nM

Structure (SMILES): C=C[C@@H]1C[C@]1(NC(=O)[C@@H]1C[C@@H]2CN1C(=O)[C@H](C1CCCC1)NC(=O)O[C@@H]1CCC[C@H]1CCCCCc1c(nc3ccccc3c1OCC)O2)C(=O)NS(=O)(=O)C1CC1 [Example 24, (3aR,7S,10S,12R,24aR)-7-cyclopentyl-N-{(1R,2S)-1-[(cyclopropylsulfonyl)carbamoyl]-2-ethenylcyclopropyl}-19-ethoxy-5,8-dioxo-1,2,3,3a,5,6,7,8,11,12,20,21,22,23,24,24a-hexadecahydro-10H-9,12-methanocyclopenta[18,19][1,10,3,6]dioxadiazacyclononadecino[11,12-b]quinoline-10-carboxamide]
- Ki [1, 3]: 0.39 nM
- Ki [2]: 9.1 nM

Structure (SMILES): C=C[C@@H]1C[C@]1(NC(=O)[C@@H]1C[C@@H]2CN1C(=O)[C@H](C(C)(C)C)NC(=O)O[C@@H]1C[C@H]1CCCCCc1c(nc3ccccc3c1OCC1CCN(CC)CC1)O2)C(=O)NS(=O)(=O)C1(C)CC1 [Example 227, (1aR,5S,8S,10R,22aR)-5-tert-butyl-N-[(1R,2S)-2-ethenyl-1-{[(1-methylcyclopropyl)sulfonyl]carbamoyl}cyclopropyl]-17-[(1-ethylpiperidin-4-yl)methoxy]-3,6-dioxo-1,1a,3,4,5,6,9,10,18,19,20,21,22,22a-tetradecahydro-8H-7,10-methanocyclopropa[18,19][1,10,3,6] dioxadiazacyclononadecino[11,12-b]quinoline-8-carboxamide]
- Ki [1, 3]: 0.095 nM
- Ki [2]: 0.36 nM

Structure (SMILES): C=C[C@@H]1C[C@]1(NC(=O)[C@@H]1C[C@@H]2CN1C(=O)[C@H](C1CCCC1)NC(=O)O[C@@H]1CCC[C@H]1CC/C=C/Cc1c(nc3ccccc3c1OCC(F)(F)CO)O2)C(=O)NS(=O)(=O)C1CC1 [Example 73, (3aR,7S,10S,12R,21E,24aS)-7-cyclopentyl-N-{(1R,2S)-1-[(cyclopropylsulfonyl)carbamoyl]-2-ethenylcyclopropyl}-19-(2,2-difluoro-3-hydroxypropoxy)-5,8-dioxo-1,2,3,3a,5,6,7,8,11,12,20,23,24,24a-tetradecahydro-10H-9,12-methanocyclopenta[18,19][1,10,3,6]dioxadiazacyclononadecino[11,12-b]quinoline-10-carboxamide]
- Ki [1, 3]: 0.14 nM
- Ki [2]: 2.5 nM

Structure (SMILES): C=C[C@@H]1C[C@]1(NC(=O)[C@@H]1C[C@@H]2CN1C(=O)[C@H](C1CCCC1)NC(=O)O[C@@H]1CCC[C@H]1CC/C=C/Cc1c(nc3ccccc3c1OCCCOCCOC)O2)C(=O)NS(=O)(=O)C1(C)CC1 [Example 57, (3aR,7S,10S,12R,21E,24aS)-7-cyclopentyl-N-[(1R,2S)-2-ethenyl-1-{[(1-methylcyclopropyl)sulfonyl]carbamoyl}cyclopropyl]-19-[3-(2-methoxyethoxy)propoxy]-5,8-dioxo-1,2,3,3a, 5,6,7,8,11,12,20,23,24,24a-tetradecahydro-10H-9,12-methanocyclopenta[18,19][1,10,3,6]dioxadiazacyclononadecino[11,12-b] quinoline-10-carboxamide]
- Ki [1, 3]: 0.11 nM
- Ki [2]: 2.3 nM

Structure (SMILES): C=C[C@@H]1C[C@]1(NC(=O)[C@@H]1C[C@@H]2CN1C(=O)[C@H](C1CCCCC1)NC(=O)O[C@@H]1C[C@H]1CCCCCc1c(nc3ccccc3c1OC1CCN(CCOC)CC1)O2)C(=O)NS(=O)(=O)C1(C)CC1 [Example 237, 4-{[(1aR,5S,8S,10R,22aR)-5-cyclohexyl-8-{[(1R,2S)-2-ethenyl-1-{[(1-methylcyclopropyl)sulfonyl]carbamoyl}cyclopropyl]carbamoyl}-3,6-dioxo-1,1a,3,4,5,6,9,10,18,19,20,21,22,22a-tetradecahydro-8H-7,10-methanocyclopropa[18,19][1,10,3,6]dioxadiazacyclononadecino[11,12-b]quinolin-17-yl]oxy}-1-(2-methoxyethyl)piperidinium formate]
- Ki [1, 4]: 0.013 nM
- Ki [1, 5]: 0.098 nM
- Ki [2]: 0.8 nM
